Common to all, as to format: binding, rabbit
The test system of experiment [1] is antibodies developed with immunoreactive agents described herein. As to the kind of experiment: Determination of cross-reactivity by ELISA. Conditions: for % CR (cross-reactivity): (DI50 CPFX/DI50 of tested compounds)×100; for IC50: competitive ELISA, antiserum and immunoreactive agent not named. On the procedure: (§1) Microtiter plates were coated with corresponding coating antigen (indirect format) or antiserum (direct format) dissolved in coating buffer (100 μL/well) overnight at 4° C. or during 4 hours at room temperature and covered with airtight adhesive plates. Subsequently, plates were washed with PBST (four times, 300 μL/well) and quinolone patters were added (0.01 nM-10000 nM, in PBST, 50 μL/well) followed by the corresponding antiserum (indirect format) or enzymatic tracer (direct format) (50 μL/well) in microtiter plates. After 30 minutes at room temperature, plates were washed as described above and, in the case of indirect format, a solution of antilgG rabbit IgG labelled with HRP (1/6000 in PBST) (100 μl/well) was added and incubated for 30 minutes at room temperature. Plates were washed again, and for both formats, substrate solution was added (100 μL/well). Color development was stopped after 30 minutes at room temperature with […] (50 μL/well), and absorbance was read at 450 nm. Standard curves were adjusted to a four parameter equation, using the following formula: Y−[(A−B)/1−[x/C)D]+B, where A represents maximum absorbance, B represents minimum absorbance, C represents the concentration producing 50% of maximum absorbance, and D represents the tangent at the inflection point of sigmoid curve.
Stock solutions were prepared at a concentration of […] for different quinolones and other antibiotics in sodium hydroxide ([…]) and measured by ELISA. Cross-reactivity values were calculated according to the equation below: (DI50 CPFX/DI50 of tested compounds)×100.
Background: ELISA stands for enzyme-linked immunosorbent assay.

Experiment [2] deals with antiserum (As) 171. As to the kind of experiment: Competitive ELISA for ciprofloxacin, antiserum 171 with HRP conjugate I31 (enzymatic tracer). Conditions: As 171 dilution 1/8000; IR I31 0.0625 μg/mL. How it is done:
Immunization protocol was conducted in female white rabbits from New Zealand weighing 1-2 Kg, as described previously (Salvador, Analytical Chemistry. 2007, 79, 3734-3740). Immunogens (100 μg) dissolved in PBS (0.5 mL) were emulsified with Freund's adjuvant, completely the first time and the remainder incompletely, in 1:1 ratio. They were rapidly injected intradermally in different places of the host animal back (one injection per month). Antibody titers evolution was assessed by measuring serial dilutions binding of different antiserum in microtiter plates coated with the corresponding immunoreactive agent. […]
Microtiter plates were coated with corresponding coating antigen (indirect format) or antiserum (direct format) dissolved in coating buffer (100 μL/well) overnight at 4° C. or during 4 hours at room temperature and covered with airtight adhesive plates. […] Color development was stopped after 30 minutes at room temperature with […] (50 μL/well), and absorbance was read at 450 nm. Standard curves were adjusted to a four parameter equation, using the following formula: Y−[(A−B)/1−[x/C)D]+B, where A represents maximum absorbance, B represents minimum absorbance, C represents the concentration producing 50% of maximum absorbance, and D represents the tangent at the inflection point of sigmoid curve.

The test system of experiment [3] is antiserum (As) 171. As to the kind of experiment: Competitive ELISA for ciprofloxacin, antiserum 171, coating antigen (indirect format). On the procedure:
(§2) Immunization protocol was conducted in female white rabbits from New Zealand weighing 1-2 Kg, as described previously (Salvador, Analytical Chemistry. 2007, 79, 3734-3740). Immunogens (100 μg) dissolved in PBS (0.5 mL) were emulsified with Freund's adjuvant, completely the first time and the remainder incompletely, in 1:1 ratio. They were rapidly injected intradermally in different places of the host animal back (one injection per month). Antibody titers evolution was assessed by measuring serial dilutions binding of different antiserum in microtiter plates coated with the corresponding immunoreactive agent. After observing an acceptable antibody titer, animals were bled to death and their blood was collected in Vacutainer tubes fitted with a serum separating gel. Antiserum were obtained by centrifugation and stored at −80° C. in the presence of 0.02% NaN3.
as §1, with “Plates were washed again, and for both formats, substrate solution was added (100 μL/well).” left out

A further experiment concerns antiserum (As) 173. As to the kind of experiment: Competitive ELISA for ciprofloxacin, antiserum 173, coating antigen (indirect format). How it is done: as §2
as §1, with “Plates were washed again, and for both formats, substrate solution was added (100 μL/well).” left out

The next experiment relates to antiserum (As) 172. In words: Competitive ELISA for ciprofloxacin, antiserum 172, coating antigen (indirect format). How it is done: as §2
as §1, with “Plates were washed again, and for both formats, substrate solution was added (100 μL/well).” left out

The structures appear in SMILES notation. Values after ≈ are worked out from the molar mass of the structure shown.

`CC1(C)S[C@@H]2[C@H](NC(=O)[C@H](N)c3ccccc3)C(=O)N2[C@H]1C(=O)O` [Ampicillin]: in experiment [1], the “% CR (cross-reactivity)” value is reported as under 0.2% and the IC50 is recorded as over 1000 μg-L^−1.

In the case of `CCn1cc(C(=O)O)c(=O)c2cc(F)c(N3CCNCC3)cc21` [Norfloxacin], in experiment [1], the “% CR (cross-reactivity)” value came to 81% and the IC50 is reported as 0.78 μg-L^−1.

For the compound `O=C(O)c1cn(C2CC2)c2cc(N3CCNCC3)c(F)cc2c1=O` [Ciprofloxacin], the IC50 with antiserum (As) 171 [2] stood at 0.00081 µg/mL (≈ 0.00244 µM); in the experiment with antiserum (As) 171 [3] (As 171 dilution 1/16000, IR I16 2.5 μg/mL), 0.0164 µg/mL (≈ 0.0495 µM); in the experiment with antiserum (As) 171 [3] (As 171 dilution 1/16000, IR I26 0.25 μg/mL), 0.00166 µg/mL (≈ 0.00501 µM); with antiserum (As) 171 [3] (As 171 dilution 1/128000, IR I19 0.0156 μg/mL) it was 0.00481 µg/mL (≈ 0.0145 µM); with antiserum (As) 173 (As 173 dilution 1/16000, IR I16 5 μg/mL), 0.13468 µg/mL (≈ 0.406 µM); in the experiment on antiserum (As) 173 (As 173 dilution 1/16000, IR I26 0.25 μg/mL) it was 0.00149 µg/mL (≈ 0.0045 µM). In addition, the IC50 in the experiment on antiserum (As) 173 (As 173 dilution 1/128000, IR I19 0.0156 μg/mL) amounted to 0.04855 µg/mL (≈ 0.147 µM); in the experiment with antiserum (As) 172 (As 172 dilution 1/4000, IR I16 2.5 μg/mL), 0.03839 µg/mL (≈ 0.116 µM); in the experiment with antiserum (As) 172 (As 172 dilution 1/4000, IR I26 0.25 μg/mL), 0.01156 µg/mL (≈ 0.0349 µM); in the experiment with antiserum (As) 172 (As 172 dilution 1/32000, IR I19 0.0156 μg/mL), 0.0276 µg/mL (≈ 0.0833 µM); in experiment [1], 0.77 ± 0.27 μg-L^−1. Besides, the “% CR (cross-reactivity)” value in experiment [1] came out at 100%.

`Cc1cc(C)nc(NS(=O)(=O)c2ccc(N)cc2)n1` [Sulfamethazine]: in experiment [1], the “% CR (cross-reactivity)” value is under 0.2% and the IC50 is given as over 1000 μg-L^−1.

Turning to `Nc1ccc(S(=O)(=O)Nc2nccs2)cc1` [Sulfathiazole], in experiment [1], the “% CR (cross-reactivity)” value was under 0.2% and the IC50 is over 1000 μg-L^−1.

Consider `CN1C[C@@H]2C[C@H]1CN2c1cc2c(cc1F)c(=O)c(C(=O)O)cn2C1CC1` [Danofloxacin], for which, in experiment [1], the “% CR (cross-reactivity)” value was found to be 8% and the IC50 stood at 7.31 μg-L^−1.

Regarding `CCn1cc(C(=O)O)c(=O)c2cc3c(cc21)OCO3` [Oxolinic acid], in experiment [1], the “% CR (cross-reactivity)” value stood at 4% and the IC50 is reported as 23.53 μg-L^−1.

Consider `CN1CCN(c2cc3c(cc2F)c(=O)c(C(=O)O)cn3-c2ccc(F)cc2)CC1` [Difloxacin], for which, in experiment [1], the “% CR (cross-reactivity)” value was 75% and the IC50 turned out to be 0.91 μg-L^−1.

With `CCN1CCN(c2cc3c(cc2F)c(=O)c(C(=O)O)cn3C2CC2)CC1` [Enrofloxacin], in experiment [1], the “% CR (cross-reactivity)” value is 95% and the IC50 came out at 0.65 μg-L^−1.

For `CC1CCc2cc(F)cc3c(=O)c(C(=O)O)cn1c23` (stereo not drawn) [Flumequine], in experiment [1], the “% CR (cross-reactivity)” value was found to be 22% and the IC50 is recorded as 3.91 μg-L^−1.

Regarding `CN1CCN(c2c(F)cc3c(=O)c(C(=O)O)cn4c3c2OCN4C)CC1` [Marbofloxacin], in experiment [1], the “% CR (cross-reactivity)” value stood at 28% and the IC50 worked out at 4.30 μg-L^−1.

`O=C(N[C@H](CO)[C@H](O)c1ccc([N+](=O)[O-])cc1)C(Cl)Cl` [Chloramphenicol]: in experiment [1], the “% CR (cross-reactivity)” value is under 0.2% and the IC50 is over 1000 μg-L^−1.

For `O=C(O)c1cn(-c2ccc(F)cc2)c2cc(N3CCNCC3)c(F)cc2c1=O` [Sarafloxacin], in experiment [1], the “% CR (cross-reactivity)” value was found to be 80% and the IC50 came out at 0.96 μg-L^−1.
